From PubChem BioAssay (NCI)
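How tested: cells in 96-well plates exposed to compound for 48 hours at five concentrations. TGI marks complete inhibition of growth.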

Tests used:
Assay in all cases: NCI anticancer screen, dose series, 48 h
IGROV1 ovarian = test system: IGROV1 ovarian
NCI-H460 lung = test system: NCI-H460 lung
SK-MEL-2 melanoma = test system: SK-MEL-2 melanoma
U251 CNS = test system: U251 CNS
LOX IMVI melanoma = test system: LOX IMVI melanoma
M14 melanoma = test system: M14 melanoma
ACHN renal = test system: ACHN renal
SF-539 CNS = test system: SF-539 CNS
HCC-2998 colon = test system: HCC-2998 colon
HCT-15 colon = test system: HCT-15 colon
NCI/ADR-RES ovarian = test system: NCI/ADR-RES ovarian
MDA-MB-435 = test system: MDA-MB-435
K-562 leukemia = test system: K-562 leukemia
SN12C renal = test system: SN12C renal
SF-268 CNS = test system: SF-268 CNS
MDA-MB-231 breast = test system: MDA-MB-231 breast
OVCAR-3 ovarian = test system: OVCAR-3 ovarian
COLO 205 colon = test system: COLO 205 colon
SNB-75 CNS = test system: SNB-75 CNS
DU-145 prostate = test system: DU-145 prostate
HS 578T breast = test system: HS 578T breast
SK-MEL-28 melanoma = test system: SK-MEL-28 melanoma
HOP-92 NSCLC = test system: HOP-92 NSCLC
NCI-H522 lung = test system: NCI-H522 lung
OVCAR-8 ovarian = test system: OVCAR-8 ovarian
CCRF-CEM leukemia = test system: CCRF-CEM leukemia
CAKI-1 renal = test system: CAKI-1 renal
A549 NSCLC = test system: A549 NSCLC
HCT-116 colon = test system: HCT-116 colon
MALME-3M melanoma = test system: MALME-3M melanoma
UACC-62 melanoma = test system: UACC-62 melanoma
HOP-62 NSCLC = test system: HOP-62 NSCLC
MCF7 breast = test system: MCF7 breast
UACC-257 melanoma = test system: UACC-257 melanoma
SK-OV-3 ovarian = test system: SK-OV-3 ovarian
SW-620 colon = test system: SW-620 colon
BT-549 breast = test system: BT-549 breast
A498 renal = test system: A498 renal
SNB-19 CNS = test system: SNB-19 CNS
KM12 colon = test system: KM12 colon
RXF 393 renal = test system: RXF 393 renal
786-0 renal = test system: 786-0 renal
OVCAR-4 ovarian = test system: OVCAR-4 ovarian
SR leukemia = test system: SR leukemia
NCI-H226 lung = test system: NCI-H226 lung
HT29 colon = test system: HT29 colon
MDA-N = test system: MDA-N
SK-MEL-5 melanoma = test system: SK-MEL-5 melanoma
UO-31 renal = test system: UO-31 renal
NCI-H23 lung = test system: NCI-H23 lung
SF-295 CNS = test system: SF-295 CNS
OVCAR-5 ovarian = test system: OVCAR-5 ovarian
TK-10 renal = test system: TK-10 renal
EKVX NSCLC = test system: EKVX NSCLC
PC-3 prostate = test system: PC-3 prostate
T-47D breast = test system: T-47D breast
RPMI-8226 leukemia = test system: RPMI-8226 leukemia
HL-60(TB) leukemia = test system: HL-60(TB) leukemia
MOLT-4 leukemia = test system: MOLT-4 leukemia

## C/C(=N\Nc1nc2ccccc2n1C)c1ccc2ccccc2n1
IGROV1 ovarian
  TGI: 2.74 µM
NCI-H460 lung
  TGI: 32.1 µM
SK-MEL-2 melanoma
  TGI: > 36 µM
U251 CNS
  TGI: > 43.6 µM
LOX IMVI melanoma
  TGI: 16.6 µM
M14 melanoma
  TGI: 4.91 µM
ACHN renal
  TGI: > 54.5 µM
SF-539 CNS
  TGI: > 34.3 µM
HCC-2998 colon
  TGI: 0.9 µM
HCT-15 colon
  TGI: > 75.7 µM
NCI/ADR-RES ovarian
  TGI: 6.71 µM
MDA-MB-435
  TGI: 42.7 µM
K-562 leukemia
  TGI: 10.6 µM
SN12C renal
  TGI: 16.2 µM
SF-268 CNS
  TGI: 19.2 µM
MDA-MB-231 breast
  TGI: 28.8 µM
OVCAR-3 ovarian
  TGI: 0.213 µM
COLO 205 colon
  TGI: > 100 µM
SNB-75 CNS
  TGI: 46.4 µM
DU-145 prostate
  TGI: 14.5 µM
HS 578T breast
  TGI: 63.8 µM
SK-MEL-28 melanoma
  TGI: 37.3 µM
HOP-92 NSCLC
  TGI: 37.8 µM
NCI-H522 lung
  TGI: 19.6 µM
OVCAR-8 ovarian
  TGI: > 100 µM
CCRF-CEM leukemia
  TGI: 1.67 µM
CAKI-1 renal
  TGI: 4.51 µM
A549 NSCLC
  TGI: 16.1 µM
HCT-116 colon
  TGI: 7.03 µM
MALME-3M melanoma
  TGI: 16.3 µM
UACC-62 melanoma
  TGI: 9.79 µM
HOP-62 NSCLC
  TGI: 18.2 µM
MCF7 breast
  TGI: 27.4 µM
UACC-257 melanoma
  TGI: > 47 µM
SK-OV-3 ovarian
  TGI: > 100 µM
SW-620 colon
  TGI: 25.8 µM
BT-549 breast
  TGI: > 59.6 µM
A498 renal
  TGI: 15.6 µM
SNB-19 CNS
  TGI: > 100 µM
KM12 colon
  TGI: 43.5 µM
RXF 393 renal
  TGI: 29.3 µM
786-0 renal
  TGI: 11.5 µM
OVCAR-4 ovarian
  TGI: 0.954 µM
SR leukemia
  TGI: 3.73 µM
NCI-H226 lung
  TGI: 6.83 µM
HT29 colon
  TGI: 18.3 µM
MDA-N
  TGI: 37.7 µM
SK-MEL-5 melanoma
  TGI: 5.43 µM
UO-31 renal
  TGI: 11.8 µM
NCI-H23 lung
  TGI: 31 µM
SF-295 CNS
  TGI: 10.5 µM
OVCAR-5 ovarian
  TGI: 11 µM
TK-10 renal
  TGI: 34 µM
EKVX NSCLC
  TGI: 4.3 µM

## NC(N)=N/N=C/c1c(-c2ccc(Cl)cc2)nc2sc(Cl)cn12
IGROV1 ovarian
  TGI: 2.04 µM
NCI-H460 lung
  TGI: 3.21 µM
ACHN renal
  TGI: > 100 µM
SF-539 CNS
  TGI: 2.53 µM
HCT-15 colon
  TGI: 2.69 µM
NCI/ADR-RES ovarian
  TGI: 3.31 µM
MDA-MB-435
  TGI: 2.57 µM
MDA-MB-231 breast
  TGI: 3.29 µM
OVCAR-3 ovarian
  TGI: 2.88 µM
COLO 205 colon
  TGI: 2.12 µM
PC-3 prostate
  TGI: > 100 µM
SNB-75 CNS
  TGI: 2.72 µM
DU-145 prostate
  TGI: 3.37 µM
SK-MEL-28 melanoma
  TGI: 3.21 µM
HOP-92 NSCLC
  TGI: 3.17 µM
NCI-H522 lung
  TGI: 3.47 µM
OVCAR-8 ovarian
  TGI: 2.53 µM
CAKI-1 renal
  TGI: 2.82 µM
UACC-62 melanoma
  TGI: 3.25 µM
HOP-62 NSCLC
  TGI: 3.25 µM
UACC-257 melanoma
  TGI: 3.2 µM
SK-OV-3 ovarian
  TGI: 3.34 µM
SW-620 colon
  TGI: 2.28 µM
A498 renal
  TGI: 3.17 µM
KM12 colon
  TGI: 2.2 µM
OVCAR-4 ovarian
  TGI: 2.18 µM
NCI-H226 lung
  TGI: 3.36 µM
MDA-N
  TGI: 3.13 µM
SK-MEL-5 melanoma
  TGI: 2.97 µM
UO-31 renal
  TGI: 3.1 µM
NCI-H23 lung
  TGI: 2.48 µM
SF-295 CNS
  TGI: 3.18 µM
T-47D breast
  TGI: 2.64 µM
OVCAR-5 ovarian
  TGI: 3.1 µM
TK-10 renal
  TGI: 3.1 µM

## CSc1nc(C)c(CCOC(C)=O)c(N=P(c2ccccc2)(c2ccccc2)c2ccccc2)n1
IGROV1 ovarian
  TGI: > 10 µM
LOX IMVI melanoma
  TGI: > 10 µM
M14 melanoma
  TGI: > 10 µM
HCC-2998 colon
  TGI: > 10 µM
HCT-15 colon
  TGI: > 10 µM
K-562 leukemia
  TGI: > 10 µM
SN12C renal
  TGI: > 10 µM
SF-268 CNS
  TGI: > 10 µM
MDA-MB-231 breast
  TGI: > 10 µM
PC-3 prostate
  TGI: 9.37 µM
SNB-75 CNS
  TGI: > 10 µM
DU-145 prostate
  TGI: > 10 µM
SK-MEL-28 melanoma
  TGI: > 10 µM
OVCAR-8 ovarian
  TGI: > 10 µM
CCRF-CEM leukemia
  TGI: > 10 µM
CAKI-1 renal
  TGI: > 10 µM
A549 NSCLC
  TGI: > 10 µM
MALME-3M melanoma
  TGI: > 10 µM
UACC-62 melanoma
  TGI: > 10 µM
HOP-62 NSCLC
  TGI: > 10 µM
MCF7 breast
  TGI: > 10 µM
UACC-257 melanoma
  TGI: > 10 µM
SK-OV-3 ovarian
  TGI: > 10 µM
SW-620 colon
  TGI: > 10 µM
KM12 colon
  TGI: > 10 µM
RPMI-8226 leukemia
  TGI: > 10 µM
RXF 393 renal
  TGI: > 10 µM
786-0 renal
  TGI: > 10 µM
SR leukemia
  TGI: 7.83 µM
HL-60(TB) leukemia
  TGI: > 10 µM
HT29 colon
  TGI: > 10 µM
MDA-N
  TGI: > 10 µM
SK-MEL-5 melanoma
  TGI: > 10 µM
NCI-H23 lung
  TGI: > 10 µM
SF-295 CNS
  TGI: > 10 µM
T-47D breast
  TGI: > 10 µM
TK-10 renal
  TGI: > 10 µM
EKVX NSCLC
  TGI: > 10 µM
MOLT-4 leukemia
  TGI: 6.43 µM

## Cc1cc2c3c(c1)CCCN3CCC2
IGROV1 ovarian
  TGI: > 10 µM
NCI-H460 lung
  TGI: > 10 µM
SK-MEL-2 melanoma
  TGI: > 10 µM
U251 CNS
  TGI: > 10 µM
LOX IMVI melanoma
  TGI: > 10 µM
M14 melanoma
  TGI: > 10 µM
ACHN renal
  TGI: > 10 µM
SF-539 CNS
  TGI: > 10 µM
HCC-2998 colon
  TGI: > 10 µM
HCT-15 colon
  TGI: > 10 µM
NCI/ADR-RES ovarian
  TGI: > 10 µM
MDA-MB-435
  TGI: > 10 µM
K-562 leukemia
  TGI: > 10 µM
SN12C renal
  TGI: > 10 µM
SF-268 CNS
  TGI: > 10 µM
MDA-MB-231 breast
  TGI: > 10 µM
OVCAR-3 ovarian
  TGI: > 10 µM
COLO 205 colon
  TGI: > 10 µM
PC-3 prostate
  TGI: > 10 µM
SNB-75 CNS
  TGI: > 10 µM
DU-145 prostate
  TGI: > 10 µM
HS 578T breast
  TGI: > 10 µM
SK-MEL-28 melanoma
  TGI: > 10 µM
HOP-92 NSCLC
  TGI: > 10 µM
NCI-H522 lung
  TGI: > 10 µM
OVCAR-8 ovarian
  TGI: > 10 µM
CCRF-CEM leukemia
  TGI: > 10 µM
CAKI-1 renal
  TGI: > 10 µM
A549 NSCLC
  TGI: > 10 µM
HCT-116 colon
  TGI: > 10 µM
MALME-3M melanoma
  TGI: > 10 µM
UACC-62 melanoma
  TGI: > 10 µM
HOP-62 NSCLC
  TGI: > 10 µM
MCF7 breast
  TGI: > 10 µM
UACC-257 melanoma
  TGI: > 10 µM
SK-OV-3 ovarian
  TGI: > 10 µM
SW-620 colon
  TGI: > 10 µM
A498 renal
  TGI: > 10 µM
SNB-19 CNS
  TGI: > 10 µM
KM12 colon
  TGI: > 10 µM
RPMI-8226 leukemia
  TGI: > 10 µM
RXF 393 renal
  TGI: > 10 µM
786-0 renal
  TGI: > 10 µM
OVCAR-4 ovarian
  TGI: > 10 µM
SR leukemia
  TGI: > 10 µM
HL-60(TB) leukemia
  TGI: > 10 µM
NCI-H226 lung
  TGI: > 10 µM
HT29 colon
  TGI: > 10 µM
MDA-N
  TGI: > 10 µM
SK-MEL-5 melanoma
  TGI: > 10 µM
UO-31 renal
  TGI: > 10 µM
NCI-H23 lung
  TGI: > 10 µM
SF-295 CNS
  TGI: > 10 µM
T-47D breast
  TGI: > 10 µM
TK-10 renal
  TGI: > 10 µM
EKVX NSCLC
  TGI: > 10 µM
MOLT-4 leukemia
  TGI: > 10 µM
